According to US11931424B2, “Combination MCL-1 inhibitors with anti-body drug conjugates” (Gilead Sciences, Inc., priority 2021, dated 2024):

System: panel of breast cancer cell lines
Assay: Compound A with targeted agents and chemotherapies, 72-hour in vitro proliferation assays
Format: cell-based
Conditions: compound A × partner, 72-hour proliferation

Cn1ncnc1[C@H]1c2n[nH]c(=O)c3cc(F)cc(c23)N[C@@H]1c1ccc(F)cc1 [BMN 673]
Best CI (AU565 cell line): 0.72 | Bliss Volume (AU565 cell line): 5.62 | HSA volume (AU565 cell line): 2.94 | Synergy Score (AU565 cell line): 8.12 | Best CI (BT-20 cell line): 0.67 | Bliss Volume (BT-20 cell line): 6.61 | HSA volume (BT-20 cell line): 7.19 | Loewe Volume (BT-20 cell line): 7.05 | Synergy Score (BT-20 cell line): 13.00 | Best CI (CAL-51 cell line): 0.26 | Bliss Volume (CAL-51 cell line): 6.45 | HSA volume (CAL-51 cell line): 8.03 | Loewe Volume (CAL-51 cell line): 8.01 | Synergy Score (CAL-51 cell line): 6.14 | Best CI (CAL-85-1 cell line): 0.10 | Bliss Volume (CAL-85-1 cell line): 9.61 | HSA volume (CAL-85-1 cell line): 13.84 | Loewe Volume (CAL-85-1 cell line): 13.04 | Synergy Score (CAL-85-1 cell line): 13.48 | Best CI (CAL-120 cell line): 2.73 | Bliss Volume (CAL-120 cell line): −3.70 | HSA volume (CAL-120 cell line): −7.12 | Loewe Volume (CAL-120 cell line): −9.94 | Synergy Score (CAL-120 cell line): 0.01 | Best CI (CAL-148 cell line): 0.03 | Bliss Volume (CAL-148 cell line): 32.27 | HSA volume (CAL-148 cell line): 30.51 | Loewe Volume (CAL-148 cell line): 33.70 | Synergy Score (CAL-148 cell line): 51.37 | Best CI (CAMA-1 cell line): 0.44 | Bliss Volume (CAMA-1 cell line): 14.84 | HSA volume (CAMA-1 cell line): 11.15 | Loewe Volume (CAMA-1 cell line): 11.46 | Best CI (DU-4475 cell line): 0.90 | Bliss Volume (DU-4475 cell line): 14.54 | HSA volume (DU-4475 cell line): 11.67 | Loewe Volume (DU-4475 cell line): 11.80 | Synergy Score (DU-4475 cell line): 12.59 | Best CI (EVSA-T cell line): 0.76 | Bliss Volume (EVSA-T cell line): 12.51 | HSA volume (EVSA-T cell line): 5.77 | Loewe Volume (EVSA-T cell line): 5.78 | Synergy Score (EVSA-T cell line): 7.17 | Best CI (HCC38): 0.09 | Bliss Volume (HCC38): 12.68 | Loewe Volume (HCC38): 13.43 | Synergy Score (HCC38): 20.73 | Best CI (HCC70): 0.39 | Bliss Volume (HCC70): 15.24 | HSA volume (HCC70): 15.02 | Loewe Volume (HCC70): 15.13 | Best CI (HCC1143 cell line): 0.53 | Bliss Volume (HCC1143 cell line): 0.82 | HSA volume (HCC1143 cell line): 2.15 | Loewe Volume (HCC1143 cell line): 1.38 | Synergy Score (HCC1143 cell line): 4.91 | Best CI (HCC1569): 0.55 | Bliss Volume (HCC1569): 9.55 | HSA volume (HCC1569): 11.82 | Loewe Volume (HCC1569): 11.51 | Synergy Score (HCC1569): 10.50 | Best CI (HCC1806): 0.15 | Bliss Volume (HCC1806): 15.34 | HSA volume (HCC1806): 21.19 | Loewe Volume (HCC1806): 21.61 | Synergy Score (HCC1806): 26.09 | Best CI (HCC1937): 0.51 | Bliss Volume (HCC1937): 5.18 | HSA volume (HCC1937): 0.65 | Loewe Volume (HCC1937): 4.96 | Synergy Score (HCC1937): 3.27 | Best CI (HCC1954): 0.56 | Bliss Volume (HCC1954): 7.66 | HSA volume (HCC1954): 7.39 | Loewe Volume (HCC1954): 8.33 | Synergy Score (HCC1954): 9.80 | Best CI (HCC2218): 0.90 | Bliss Volume (HCC2218): 1.41 | HSA volume (HCC2218): 0.71 | Loewe Volume (HCC2218): 0.15 | Synergy Score (HCC2218): 5.35 | Best CI (HDQ-P1): 0.91 | Bliss Volume (HDQ-P1): 0.31 | HSA volume (HDQ-P1): −0.95 | Loewe Volume (HDQ-P1): −0.15 | Synergy Score (HDQ-P1): 1.09 | Best CI (HMC-1-8): 0.22 | Bliss Volume (HMC-1-8): 22.38 | HSA volume (HMC-1-8): 11.38 | Loewe Volume (HMC-1-8): 11.09 | Synergy Score (HMC-1-8): 19.54 | Best CI (JIMT-1): 0.13 | Bliss Volume (JIMT-1): −0.56 | HSA volume (JIMT-1): −1.70 | Loewe Volume (JIMT-1): −1.62 | Synergy Score (JIMT-1): 1.28 | Best CI (KPL-1): 0.53 | Bliss Volume (KPL-1): −2.58 | HSA volume (KPL-1): 0.29 | Synergy Score (KPL-1): 1.84

Cc1c(-c2ccc(N3CCc4cccc(C(=O)Nc5nc6ccccc6s5)c4C3)nc2C(=O)O)cnn1CC12CC3CC(CC(C3)C1)C2 [Compound A-1331852]
Best CI (BT-20 cell line): 0.01 | Bliss Volume (BT-20 cell line): 68.96 | HSA volume (BT-20 cell line): 70.29 | Loewe Volume (BT-20 cell line): 70.26 | Synergy Score (BT-20 cell line): 162.62 | Best CI (CAL-51 cell line): 0.01 | Bliss Volume (CAL-51 cell line): 56.43 | HSA volume (CAL-51 cell line): 55.36 | Loewe Volume (CAL-51 cell line): 56.58 | Synergy Score (CAL-51 cell line): 118.96 | Best CI (CAL-85-1 cell line): 0.01 | Bliss Volume (CAL-85-1 cell line): 49.08 | HSA volume (CAL-85-1 cell line): 54.69 | Loewe Volume (CAL-85-1 cell line): 53.39 | Synergy Score (CAL-85-1 cell line): 114.90 | Best CI (CAL-120 cell line): 0.04 | Bliss Volume (CAL-120 cell line): 28.08 | HSA volume (CAL-120 cell line): 26.51 | Loewe Volume (CAL-120 cell line): 28.14 | Synergy Score (CAL-120 cell line): 55.20 | Best CI (CAL-148 cell line): 0.01 | Bliss Volume (CAL-148 cell line): 51.23 | HSA volume (CAL-148 cell line): 55.15 | Loewe Volume (CAL-148 cell line): 56.80 | Synergy Score (CAL-148 cell line): 129.75 | Best CI (CAMA-1 cell line): 0.02 | Bliss Volume (CAMA-1 cell line): 41.48 | HSA volume (CAMA-1 cell line): 38.74 | Loewe Volume (CAMA-1 cell line): 40.35 | Synergy Score (CAMA-1 cell line): 89.71 | Best CI (DU-4475 cell line): 0.41 | Bliss Volume (DU-4475 cell line): 34.50 | HSA volume (DU-4475 cell line): 31.29 | Loewe Volume (DU-4475 cell line): 31.62 | Synergy Score (DU-4475 cell line): 49.81 | Best CI (EVSA-T cell line): 0.11 | Bliss Volume (EVSA-T cell line): 31.72 | HSA volume (EVSA-T cell line): 28.03 | Loewe Volume (EVSA-T cell line): 29.10 | Synergy Score (EVSA-T cell line): 63.11 | Best CI (HCC38): 0.03 | Bliss Volume (HCC38): 36.56 | HSA volume (HCC38): 31.80 | Loewe Volume (HCC38): 30.82 | Synergy Score (HCC38): 60.48 | Best CI (HCC70): 0.00 | Bliss Volume (HCC70): 73.73 | HSA volume (HCC70): 74.12 | Loewe Volume (HCC70): 74.78 | Synergy Score (HCC70): 173.58 | Best CI (HCC1143 cell line): 0.00 | Bliss Volume (HCC1143 cell line): 53.10 | HSA volume (HCC1143 cell line): 51.70 | Loewe Volume (HCC1143 cell line): 52.79 | Synergy Score (HCC1143 cell line): 89.24 | Best CI (HCC1569): 0.01 | Bliss Volume (HCC1569): 43.44 | HSA volume (HCC1569): 40.52 | Loewe Volume (HCC1569): 40.04 | Synergy Score (HCC1569): 86.99 | Best CI (HCC1806): 0.00 | Bliss Volume (HCC1806): 83.58 | HSA volume (HCC1806): 85.67 | Loewe Volume (HCC1806): 85.91 | Synergy Score (HCC1806): 183.39 | Best CI (HCC1937): 0.00 | Bliss Volume (HCC1937): 69.83 | HSA volume (HCC1937): 71.58 | Loewe Volume (HCC1937): 71.06 | Synergy Score (HCC1937): 157.43 | Best CI (HCC1954): 0.01 | Bliss Volume (HCC1954): 53.64 | HSA volume (HCC1954): 55.54 | Loewe Volume (HCC1954): 55.53 | Synergy Score (HCC1954): 121.26 | Best CI (HCC2218): 0.01 | Bliss Volume (HCC2218): 47.29 | HSA volume (HCC2218): 47.84 | Loewe Volume (HCC2218): 46.72 | Synergy Score (HCC2218): 99.88 | Best CI (HDQ-P1): 0.01 | Bliss Volume (HDQ-P1): 58.35 | HSA volume (HDQ-P1): 61.13 | Loewe Volume (HDQ-P1): 60.82 | Synergy Score (HDQ-P1): 132.76 | Best CI (HMC-1-8): 0.11 | Bliss Volume (HMC-1-8): 21.81 | HSA volume (HMC-1-8): 19.39 | Loewe Volume (HMC-1-8): 20.77 | Synergy Score (HMC-1-8): 39.01 | Best CI (JIMT-1): 0.01 | Bliss Volume (JIMT-1): 57.07 | HSA volume (JIMT-1): 57.74 | Loewe Volume (JIMT-1): 57.21 | Synergy Score (JIMT-1): 126.70 | Best CI (KPL-1): 0.03 | Bliss Volume (KPL-1): 26.84 | HSA volume (KPL-1): 25.88 | Loewe Volume (KPL-1): 26.65 | Synergy Score (KPL-1): 36.44
